Laboratory results: patent US7659312B2, “Inhibitors of Aquaporin 4, methods and uses thereof” (Niigata University, priority 2006, dated 2010)
Like-named read-outs stand apart in the source and are kept apart here. Values belong to the compound of their own block, whether it stands above or below them.

Assays:
[1] = target: T1, human aquaporin-4 M23 isoform (hAQP4b) (Homo sapiens, UniProt P55087); assay: Inhibition of AQP4 mediated hypoosmotic swelling of Xenopus laevis oocytes expressing hAQP4b; assay type: cell-based; set-up: IAmax: unit not given here; conditions: for IAmax: value in parentheses after IC50, 0.01≦[X]≦100 μM
T1 construct: Full-length cRNA was subcloned into pSP35T expression vector for Xenopus oocytes; expressed in transfected cells; host or cells: Xenopus laevis oocytes injected with hAQP4b cRNA (pSP35T vector)
T1 sequence (P55087 23-323): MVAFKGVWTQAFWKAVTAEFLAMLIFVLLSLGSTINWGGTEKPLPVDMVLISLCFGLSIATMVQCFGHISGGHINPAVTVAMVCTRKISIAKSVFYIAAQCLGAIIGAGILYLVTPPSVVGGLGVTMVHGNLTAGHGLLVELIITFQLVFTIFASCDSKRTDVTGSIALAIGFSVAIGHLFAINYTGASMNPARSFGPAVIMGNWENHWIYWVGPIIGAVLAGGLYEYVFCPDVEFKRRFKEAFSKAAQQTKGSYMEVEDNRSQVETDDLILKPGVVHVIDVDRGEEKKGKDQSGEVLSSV

[2] = target: T1, human aquaporin-4 M23 isoform (hAQP4b); assay: as above; assay type: cell-based; conditions: for inhibition at 20 µM / % Inh (percent inhibition and cumulated error): Table 3, [X]=20 μM, P<0.05; for inhibition at 20 µM: read-out: % Inh (percent inhibition and cumulated error)
Description: Compounds studied in vitro were purchased from Sigma-Aldrich, Tokyo Kasei, Wako or Scientific Exchange, and were used without further purification. […] Compound samples were freshly dissolved into DMSO (Sigma, Hibri-Max) and diluted into RO deionized water (Milipore, Ultra-Q) prior to use. Other reagents were purchased from Sigma and Wako and were used without modification. Modified Barth's Medium (MBS) and isolation buffer were prepared using autoclaved, doubly distilled water. MBS was used for up to one week after its preparation. […] Isolation buffer was prepared to contain NaCl (108 mM), KCl (2 mM), EDTA, (2 mM), HEPES (10 mM), and was at pH=7.5.
cDNA encoding human aquaporin-4 M23 isoform (hAQP4b) was cloned by reverse-transcription polymerase chain reaction (RT-PCR). First-strand cDNA was synthesized from human cerebellum total RNA by using the Advantage RT-for-PCR Kit (CLONTECH). The following oligonucleotide PCR primers were designed based on published hAQP4b sequences (Lu, et al. Proc. Nat. Acad. Sci. USA 1996, 93, 10908): forward 5′-[…]-3′, reverse 5′-[…]-3′. Full-length cRNA was subcloned into pSP35T expression vector for Xenopus oocytes (Amaya, et al. Cell 1991, 66, 257).
Oocytes from an adult, female Xenopus laevis were transferred portion-wise to a Petri dish containing isolation buffer, where the follicular membranes and vitelline were removed manually, thereby yielding denuded oocytes (Sakimura, et al. FEBS Lett. 1990, 272, 73). Denuded stage V-VI oocytes were then returned to fresh MBS medium and allowed to equ ilibrate for a minimum of 2 h at 18° C. prior to cRNA injection. Denuded oocytes unused after 24 h were discarded. An aliquot of hAQP4b cRNA solution (20 μL) was pelleted by centrifugation (15,000 rpm, 14 min, 4° C.), the pellet was washed sequentially with 70% aqueous ethanol, then 100% ethanol (centrifugation between washes at 15,000 rpm, 3 min, 4° C.), air dried, and finally reconstituted in distilled water (10 μL). An aliquot (30 nL) of either the resulting 0.1 μg/μL cRNA solution (3 ng hAQP4b cRNA/oocyte) or distilled water (sham) was injected into each oocyte using a Drummond oocyte injection system. The injected oocytes were then incubated for 48 h at 18° C. in MBS. The medium was changed and non-viable oocytes removed 24 and 48 h post injection.
An oocyte assay procedure was developed as follows: At a minimum of 3 h prior to the assay, oocytes were transferred to a 96 well microplate (Falcon 353077) along with 45 μL of MBS. An aliquot of a 200 μM inhibitor solution (5 μL, 1% aq. DMSO), or blank (5 μL, 1% aq. DMSO) was introduced to the oocyte containing well 2 h before the assay. The final concentration of the incubation medium was 20 μM in inhibitor with 0.1% DMSO. A secondary plate was likewise prepared by diluting an aliquot of the 200 μM inhibitor solution (15 μL, 1% aq. DMSO) or blank (15 μL, 1% aq. DMSO) with distilled water (135 μL). The assay was performed by transferring an aliquot of the secondary plate medium (100 μL) to the corresponding well on the incubation plate. […] The initial image (nominally t=3 s) and subsequent images (60 s intervals) were recorded for up to 4 minutes post dilution.
Images were transferred to a PC and the area of each oocyte was evaluated using NIH Image-J. The cross-sectional area values for each oocyte at time=t were converted to volumes assuming a spherical relationship. The relative volume of each oocyte compared to its initial volume was then determined. Relative oocyte volumes were then averaged for n oocytes along with the standard error at each point.

HEK293 cells = conditions: literature report, isozyme not demonstrated; cited from earlier work
AQP1 = target: T2, AQP1 (Homo sapiens, UniProt P29972); conditions: literature report; cited from earlier work
T2 sequence (P29972 1-269): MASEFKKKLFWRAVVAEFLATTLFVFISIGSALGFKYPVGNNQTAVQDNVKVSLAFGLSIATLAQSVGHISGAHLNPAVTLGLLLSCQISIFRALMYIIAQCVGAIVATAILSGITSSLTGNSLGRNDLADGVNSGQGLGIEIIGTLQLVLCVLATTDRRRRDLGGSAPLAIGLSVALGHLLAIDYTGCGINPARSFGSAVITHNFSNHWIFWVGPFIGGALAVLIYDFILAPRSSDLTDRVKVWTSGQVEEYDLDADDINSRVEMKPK

AQP4 = AQP4 (Homo sapiens, UniProt P55087); conditions: literature report; cited from earlier work
AQP4, sequence (P55087 whole entry): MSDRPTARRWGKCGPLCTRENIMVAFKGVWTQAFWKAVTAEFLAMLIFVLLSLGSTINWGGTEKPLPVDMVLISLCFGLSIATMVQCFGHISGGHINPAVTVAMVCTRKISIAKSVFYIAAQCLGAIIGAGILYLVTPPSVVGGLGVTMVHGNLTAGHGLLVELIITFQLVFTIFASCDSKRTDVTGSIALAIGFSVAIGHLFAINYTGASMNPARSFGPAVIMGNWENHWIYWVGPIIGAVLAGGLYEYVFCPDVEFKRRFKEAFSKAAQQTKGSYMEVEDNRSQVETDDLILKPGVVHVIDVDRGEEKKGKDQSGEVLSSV

[3] = Table 3, from inhibitory data at 0.01≦[X]≦100 μM, read-out: IC50
[4] = figure legends FIGS. 8-12, non-linear least squares fit of dose dependent inhibition, read-out: IC50

Structure (SMILES): CC(=O)Nc1nnc(S(N)(=O)=O)s1 [Compound 1, N-(5-sulfamoyl-1,3,4-thiadiazol-2-yl)acetamide]
dose response dependent inhibition of AQP4 mediated water transport ([1]; FIG. 7, 0.01, 0.1, 1.0 and 10 μM solutions, n=5): significant inhibition
IC50 ([1]; Table 3, from inhibitory data at 0.01≦[X]≦100 μM): 0.86 µM
IAmax ([1]; Table 3): 86
inhibition at 20 µM [2]: 78 ± 3%

Structure (SMILES): CC(=O)Nc1ccc(S(N)(=O)=O)cc1 [Compound 3, N-(4-sulfamoylphenyl)acetamide]
inhibition at 20 µM [2]: 23 ± 5%

Structure (SMILES): O=C1NC(=O)C(c2ccccc2)(c2ccccc2)N1 [Compound 4, 5,5-diphenylimidazolidine-2,4-dione]
IC50 [1, 3]: 9.8 µM
IAmax ([1]; Table 3): 60
inhibition at 20 µM [2]: 58 ± 4%

Structure (SMILES): NC(=O)N1c2ccccc2CC(=O)c2ccccc21 [Compound 5, 10-oxo-10,11-dihydro-5H-dibenzo [b,f]azepine-5-carboxamide]
inhibition at 20 µM [2]: 33 ± 4%

Structure (SMILES): NC(=O)N1c2ccccc2[C@H]2O[C@H]2c2ccccc21 [Compound 6, (1aR, 10bS)-1aH-dibenzo[b,f] oxireno[2,3-d]azepine-6(10bH)-carboxamide]
inhibition of AQP4 mediated water swelling / water transport ([2]; FIGS. 1-6, 20 μM inhibitor, hypoosmotic conditions, versus sham and blank oocytes, n=5 minimum): did not show a significantly inhibited water transport
inhibition at 20 µM [2]: 40 ± 7%

Structure (SMILES): Nc1nnc(-c2cccc(Cl)c2Cl)c(N)n1 [Compound 7, 6-(2,3-dichlorophenyl)-1,2,4-triazine-3,5-diamine]
IC50 [1, 3]: 8.1 µM
IAmax ([1]; Table 3): 64
inhibition at 20 µM [2]: 54 ± 9%

Structure (SMILES): CC1(C)O[C@@H]2[C@@H](CO[C@@]3(COS(N)(=O)=O)OC(C)(C)O[C@@H]23)O1 [Compound 8, ((3aS,5aR,8aR,8bS)-2,2,7,7-tetra-methyltetrahydro-3aH-bis[1,3]dioxolo[4,5-b:4′,5′-d]pyran-3a-yl) methyl sulfamate]
IC50 [1, 3]: 10.1 µM
IAmax ([1]; Table 3): 75
% Inh (percent inhibition and cumulated error) [2]: 67 ± 6%

Structure (SMILES): NS(=O)(=O)Cc1noc2ccccc12 [Compound 9, benzo[d]isoxazol-3-ylmethane sulfonamide]
inhibition at 20 µM [2]: 19 ± 5%

Structure (SMILES): O=C(Nc1nncs1)c1cccnc1 [Compound 10, N-(1,3,4-thiadiazol-2-yl) nicotinamide]
IC50 [1, 3]: 3.1 µM
IAmax ([1]; Table 3): 73
inhibition at 20 µM [2]: 67 ± 6%

Structure (SMILES): O=C(Nc1nccs1)c1cccnc1 [Compound 11, N-(thiazol-2-yl)nicotinamide]
IC50 [1, 3]: 3.4 µM
IAmax ([1]; Table 3): 23
inhibition at 20 µM [2]: 21 ± 7%

Structure (SMILES): O=S(=O)(Cc1ccccc1)Nc1nncs1 [Compound 12, 1-phenyl-N-(1,3,4-thiadiazol-2-yl) methanesulfonamide]
% Inh (percent inhibition and cumulated error) [2]: 45 ± 8%

Structure (SMILES): COC(=O)Nc1nc2ccc(C(=O)c3cccs3)cc2[nH]1 [Nocodazole]
inhibition of AQP4 mediated hypoosmotic expansion (HEK293 cells): inhibiting the AQP4 mediated hypoosmotic expansion of HEK293 cells

Structure (SMILES): CC(=O)Nc1nnc(S(N)(=O)=O)s1 [acetazolamide]
inhibition of AQP1 (AQP1): inhibited in a dose dependent manner

Structure (SMILES): CC[N+](CC)(CC)CC.[Cl-] [tetraethyl ammonium chloride]
inhibition of AQP4 (AQP4): shown to inhibit AQP4

Further lines, results first:

inhibition at 20 µM [2]: 18 ± 9%
Structure (SMILES): NS(=O)(=O)c1ccc(Cl)s1 [Compound 13, 2-chlorothiophene-5-sulfonamide]

inhibition at 20 µM [2]: 23 ± 8%
Structure (SMILES): NC(=O)c1nc[nH]c1C(N)=O [Compound 14, 1H-imidazole-4,5-dicarboxamide]

IC50 [1, 3]: 2.9 µM
IAmax ([1]; Table 3): 54
inhibition at 20 µM [2]: 51 ± 5%
Structure (SMILES): CN(C)CCc1c[nH]c2ccc(Cn3cncn3)cc12 [Compound 15, 2-(5-((1H-1,2,4-triazol-1-yl)methyl)-1H-indol-3-yl)-N,N-dimethylethanamine]

IC50 [2]: 0.86 µM
Structure (SMILES): CC(=O)Nc1nnc(S(N)(=O)=O)s1 [Table 3 entry 1, N-(5-sulfamoyl-1,3,4-thiadiazol-2-yl)acetamide]

IC50 [1, 4]: 9.8 µM
Structure (SMILES): O=C1NC(=O)C(c2ccccc2)(c2ccccc2)N1 [Table 3 entry 4, 5,5-diphenylimidazolidine-2,4-dione]

IC50 [1, 4]: 10.1 µM
Structure (SMILES): CC1(C)O[C@@H]2[C@@H](CO[C@@]3(COS(N)(=O)=O)OC(C)(C)O[C@@H]23)O1 [Table 3 entry 8, ((3aS,5aR,8aR,8bS)-2,2,7,7-tetra-methyltetrahydro-3aH-bis[1,3]dioxolo[4,5-b:4′,5′-d]pyran-3a-yl) methyl sulfamate]

IC50 [1, 4]: 3.1 µM
Structure (SMILES): O=C(Nc1nncs1)c1cccnc1 [Table 3 entry 10, N-(1,3,4-thiadiazol-2-yl) nicotinamide]

IC50 [1, 4]: 2.9 µM
Structure (SMILES): CN(C)CCc1c[nH]c2ccc(Cn3cncn3)cc12 [Table 3 entry 15, 2-(5-((1H-1,2,4-triazol-1-yl)methyl)-1H-indol-3-yl)-N,N-dimethylethanamine]
